From patent US4882319A, “Phosphonic acid substituted aromatic steroids as inhibitors of steroid 5-α-reductase” (SmithKline Beckman Corporation, priority 1988, dated 1989)
Read-outs that look alike come from different tables or passages of the source.

Experiments:
5-α-Reductase = details: cited from earlier work; for Ki: literature value; for Ki / mode of inhibition (Reversible / Irreversible): Table I; for mode of inhibition (Reversible / Irreversible) / time dependence of 5-α-reductase inhibition: literature
[1] = target: T1, human steroid 5-α-reductase (Homo sapiens, UniProt P31213); assay: biochemical
T1 construct: Prostatic particles were obtained by differential centrifugation; from tissue; host or cells: hyperplastic human prostate, washed 140,000×g particulate fraction
T1 sequence (P31213 1-254): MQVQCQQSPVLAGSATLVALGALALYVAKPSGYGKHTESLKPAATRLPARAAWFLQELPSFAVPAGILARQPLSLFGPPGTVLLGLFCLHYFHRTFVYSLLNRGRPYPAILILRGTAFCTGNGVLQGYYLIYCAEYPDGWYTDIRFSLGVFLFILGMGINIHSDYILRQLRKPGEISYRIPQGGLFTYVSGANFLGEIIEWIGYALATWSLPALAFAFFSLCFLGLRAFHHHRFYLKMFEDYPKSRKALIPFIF
Experimental: A compound of the invention, 17β-(N,N-diisopropylcarboxamide)-estr-1,3,5(10)-triene-3-phosphonic acid, was tested for potency in inhibiting human steroid 5-α-reductase using tissue from hyperplastic human prostates. In determining potency in inhibiting the human enzyme, the following procedure was employed:
Frozen human prostates were thawed and minced into small pieces (5 mm^3). The tissue was homogenized in 3 to 5 volumes of 20 mM potassium phosphate buffer, pH 6.5, containing 0.33M sucrose, 1 mM dithiothreitol, and 50 μM NADPH with a Brinkmann Polytron (Sybron Corporation, Westbury, N.Y.). The solution was subjected to sonication for 3 to 5 minutes with a Sonifier (Branson Sonic Power Co.) followed by hand homogenization in a glass-to-glass Dounce homogenizer (Kontes Glass Company, Vineland, N.J.). […]
A constant amount of [^14 C]-testosterone (52 to 55 mCi/mmol, New England Nuclear, Boston, Mass.) in ethanol and varying amounts of the potential inhibitor in ethanol were deposited in test tubes and concentrated to dryness in a SAVANT Speed Vac. […] The radiochemical content in the bands of the substrate and the products was determined with a BIOSCAN Imaging Scanner (Bioscan, Inc., Washington, D.C.). The percent of recovered radiolabel converted to product was calculated, from which enzyme activity was determined. […]

[2] = system: human steroid 5-α-reductase; details: read-out: Michaelis-Menton constant (Km) of the substrate (testosterone); determined in a separate experiment

| SMILES | Ki (5-α-Reductase) [µM] | mode of inhibition (Reversible / Irreversible) (5-α-Reductase) | also measured |
| --- | --- | --- | --- |
| CC12CCC(=O)C=C1CCC1C2CCC2(C)C1CC[C@@H]2C(=O)O (some centres unmarked) [(1)] | 1.1 | Reversible |  |
| CC(=O)C1CCC2C3CC=C=CC(=O)CCC(=O)C3CCC12C (centres unmarked) [(2)] | 1 | Irreversible |  |
| CC(CO)C1CCC2C3CC[C@H]4C(=[N+]=[N-])C(=O)CCC4(C)C3CCC12C (some centres unmarked) [(3)] |  | Irreversible | Ki (5-α-Reductase; unit inferred): 0.035 µM; time dependence of 5-α-reductase inhibition (5-α-Reductase): potent, time-dependent inhibitor |
| CCN(CC)C(=O)C1CCC2C3CC[C@H]4N(C)C(=O)CCC4(C)C3CCC12C (some centres unmarked) [(4)] | 0.005 | Reversible |  |
| C=C1CC2C(CCC3(C)C2CC[C@]3(OC(C)=O)C(C)=O)C2(C)CCC(=O)C=C12 (some centres unmarked) [(5)] | 1.25 | Irreversible | time dependence of 5-α-reductase inhibition (5-α-Reductase): time-dependent inactivator |
| CC(C)N(C(=O)[C@H]1CCC2C3CCc4cc(P(=O)(O)O)ccc4C3CCC21C)C(C)C (stereo partly drawn) [Example 1, 17β-(N,N-Diisopropylcarboxamide)-estr-1,3,5(10)-triene-3-phosphonic Acid] |  |  | Ki [1]: 0.05 µM |
| C[C@]12CC[C@H]3[C@@H](CCC4=CC(=O)CC[C@@]43C)[C@@H]1CC[C@@H]2O [testosterone] |  |  | Km [2]: 4.5 µM |
